Assay results: EP0234480A2, “1, 3-diketone derivatives and their use” (NIHON NOHYAKU CO., LTD., priority 1986, dated 1987)

What was measured:
[1] = tested on: hepatic disorder caused by carbon tetrachloride; assay: Effect of suppressing hepatic disorder caused by carbon tetrachloride; type: in vivo, mice; details: mean of 5; for Liver disorder index: mice (dd-strain), 250 mg/kg oral in olive oil, 6 h before carbon tetrachloride 0.05 ml/kg oral, visual observation 24 h after, scale 0 healthy, 2 slightly affected, 4 evident disorder, 6 serious disorder; for p-GPT (K.U.): plasma glutamic pyruvic transaminase activity, Reitman-Frankel, mice, 250 mg/kg oral, 6 h before carbon tetrachloride 0.05 ml/kg, 24 h after, values of 2,100 units or higher counted as 2,100
Method: Six hours thereafter, carbon tetrachloride was orally administered in a proportion of 0.05 ml/kg. The animals were sacrificed 24 hours after the administration of carbon tetrachloride, and the extent of liver disorder was examined by visual observation. On the other hand, blood was collected from the animal at the time of the sacrifice, and centrifuged to obtain plasma. The plasma glutamic piruvic transaminase (GPT) activity was determined according to the method of Reitman-Frankel. The activity was expressed in terms of Karmen Units (K.U.). The conditions of the liver were expressed in terms of liver disorder index as follows. […] Mice were used in groups of five and the results of test were represented by the mean value. When the GPT activity was 2,100 units or higher, […], and the activity was calculated as 2,100 units for reasons of convenience.

[2] = Acute oral toxicity (LD50); details: in vivo, male rat
Method: For example, LD50 value (acute oral toxicity to male rat) of the compound No. 8 is more than 1,000 mg/kg.

In the case of `COc1cccc(C(=O)C(C(C)=O)=C2SC(c3ccccc3)S2)c1` (stereo not shown) [compound 24], the Liver disorder index [1] is reported as 3.8 and the “p-GPT (K.U.)” value [1] is reported as 1654 K.U.
With `CC(=O)C(C(=O)c1ccc2ccccc2c1)=C1SCS1` [compound 32] the Liver disorder index [1] was 0.8 and the “p-GPT (K.U.)” value [1] was 18 K.U.
With `CC(=O)C(C(=O)c1cccnc1)=C1SCS1` [compound 21] the Liver disorder index [1] was 0.2 and the “p-GPT (K.U.)” value [1] was 14 K.U.
In the case of `CC(=O)C(C(=O)c1ccc(OCc2ccc(Cl)cc2)cc1)=C1SCS1` [compound 12], the Liver disorder index [1] is reported as 2.8 and the “p-GPT (K.U.)” value [1] is reported as 1739 K.U.
In the case of `CC(=O)C(C(=O)c1ccc(Br)cc1)=C1SCS1` [compound 16, 1-(4-bromobenzoyl)-1-(1,3-dithietan-2-ylidene)acetone], the Liver disorder index [1] is reported as 0 and the “p-GPT (K.U.)” value [1] is reported as 15.8 K.U.
With `CC(=O)C(C(=O)c1cccs1)=C1SCS1` [compound 19, 1-(1,3-dithietan-2-ylidene)-1-(2-thiophene-carbonyl)acetone] the Liver disorder index [1] was 0.2 and the “p-GPT (K.U.)” value [1] was 16 K.U.
In the case of `CC(=O)C(C(=O)c1ccc(C)c(C)c1)=C1SCS1` [compound 4, 1-(3,4-dimethylbenzoyl)-1-(1,3-dithietan-2-ylidene)acetone], the Liver disorder index [1] is reported as 0.6 and the “p-GPT (K.U.)” value [1] is reported as 23 K.U.
With `COc1ccccc1C(=O)C(C(C)=O)=C1SCS1` [Compound No. 5, 1-(1,3-dithietan-2-ylidene)-1-(2-methoxybenzoyl)acetone] the Liver disorder index [1] was 1.0 and the “p-GPT (K.U.)” value [1] was 12 K.U.
With `CC(=O)C(C(=O)c1ccc(Cl)cc1)=C1SCS1` [compound 14] the Liver disorder index [1] was 0.2 and the “p-GPT (K.U.)” value [1] was 73 K.U.
In the case of `CC(=O)C(C(=O)c1ccc(Cl)cc1Cl)=C1SCS1` [Compound No. 15], the Liver disorder index [1] is reported as 0.5 and the “p-GPT (K.U.)” value [1] is reported as 203 K.U.
In the case of `CC(C)C(=O)C(C(=O)c1ccccc1Cl)=C1SCS1` [compound 28], the Liver disorder index [1] is reported as 1.0 and the “p-GPT (K.U.)” value [1] is reported as 42 K.U.
For `CC(=O)C(C(=O)c1ccc(C)cc1)=C1SCS1` [compound 3], the Liver disorder index [1] was 1.4 and the “p-GPT (K.U.)” value [1] was 14 K.U.
With `O=C(C(C(=O)c1ccc(F)cc1)=C1SCS1)c1ccccc1` [compound 31, 1-(1,3-dithietan-2-ylidene)-1-(4-fluorobenzoyl)acetophenone] the Liver disorder index [1] was 0.4 and the “p-GPT (K.U.)” value [1] was 16 K.U.
For `CC(=O)C(C(=O)c1ccccc1)=C1SCS1` [Compound No. 1], the Liver disorder index [1] was 0.7 and the “p-GPT (K.U.)” value [1] was 23 K.U.
With `COc1cc(C(=O)C(C(C)=O)=C2SCS2)cc(OC)c1OC` [compound 10] the Liver disorder index [1] was 1.8 and the “p-GPT (K.U.)” value [1] was 413 K.U.
With `COc1ccc(C(=O)C(C(C)=O)=C2SCS2)c(OC)c1` [Compound No. 8] the Liver disorder index [1] was 0.6, the “p-GPT (K.U.)” value [1] was 54 K.U and the LD50 [2] was greater than 1000 mg/kg.
For `COc1ccc(C(=O)C(C(C)=O)=C2SCS2)cc1` [compound 7], the Liver disorder index [1] was 1.2 and the “p-GPT (K.U.)” value [1] was 19 K.U.
In the case of `CC(=O)C(C(C)=O)=C1SC(C)S1` (stereo not shown) [compound 25], the Liver disorder index [1] is reported as 1.2 and the “p-GPT (K.U.)” value [1] is reported as 205 K.U.
In the case of `O=C(C(C(=O)c1ccccc1)=C1SCS1)c1ccccc1` [compound 22], the Liver disorder index [1] is reported as 0.5 and the “p-GPT (K.U.)” value [1] is reported as 71 K.U.
In the case of `CC(=O)C(C(=O)c1ccccc1Cl)=C1SCS1` [compound 13], the Liver disorder index [1] is reported as 0.8 and the “p-GPT (K.U.)” value [1] is reported as 13 K.U.
With `CC(=O)C(C(=O)c1ccco1)=C1SCS1` [compound 20] the Liver disorder index [1] was 0 and the “p-GPT (K.U.)” value [1] was 22 K.U.
For `CC(=O)C(C(=O)c1ccc(F)cc1)=C1SCS1` [compound 17], the Liver disorder index [1] was 0.4 and the “p-GPT (K.U.)” value [1] was 15 K.U.
For `CC(=O)C(C(C)=O)=C1SCS1` [compound 18, 1-acetyl-1-(1,3-dithietan-2-ylidene) acetone], the Liver disorder index [1] was 1.6 and the “p-GPT (K.U.)” value [1] was 1142 K.U.
With `CC(=O)C(C(=O)c1cccc(C)c1)=C1SCS1` [Compound No. 2] the Liver disorder index [1] was 0.8 and the “p-GPT (K.U.)” value [1] was 22 K.U.
With `CC(=O)C(C(=O)c1ccccc1)=C1SC(c2ccccc2)S1` (stereo not shown) [compound 23] the Liver disorder index [1] was 6.6 and the “p-GPT (K.U.)” value [1] was 1668 K.U.
In the case of `CC(=O)C(C(=O)c1ccc(OCc2ccccc2)cc1)=C1SCS1` [compound 11], the Liver disorder index [1] is reported as 1.6 and the “p-GPT (K.U.)” value [1] is reported as 884 K.U.
With `COc1cccc(C(=O)C(C(C)=O)=C2SCS2)c1` [compound 6] the Liver disorder index [1] was 2.0 and the “p-GPT (K.U.)” value [1] was 16 K.U.
With `Cc1cccc(C(=O)C(C(=O)c2ccccc2)=C2SCS2)c1` [compound 30] the Liver disorder index [1] was 0.6 and the “p-GPT (K.U.)” value [1] was 19 K.U.
With `CC(=O)C(C(=O)c1ccc(OC(C)C)cc1)=C1SCS1` [compound 29] the Liver disorder index [1] was 3.4 and the “p-GPT (K.U.)” value [1] was 233 K.U.
With `COc1ccc(C(=O)C(C(C)=O)=C2SCS2)cc1OC` [compound 9] the Liver disorder index [1] was 0.6 and the “p-GPT (K.U.)” value [1] was 11 K.U.
